This is an account of results in publication PMC6801819, “Exogenous Iron Increases Fasciocidal Activity and Hepatocellular Toxicity of the Synthetic Endoperoxides OZ78 and MT04” (International Journal of Molecular Sciences, 2019).

The structures appear in SMILES notation. Read-outs that look alike come from different tables or passages of the source.

A word on the LD50: it is the dose expected to kill half of the subjects tested.

In data set [1] the test system is complex IV of the mitochondrial electron transport chain. The data set can be described thus: High-resolution respirometry, TMPD/ascorbate + antimycin A (complex IV). Conditions: AS 100 µM, OZ78 500 µM, MT04 500 µM, 24 h, permeabilized HepG2. Format: cell-based, human. How it is done: (§1) After incubation with different drugs for 24 h, HepG2 cells were trypsinized and resuspended in DMEM with 10% fetal calf serum (FCS) and then centrifuged for 5 min (180× g). Cells were resuspended in MiRo5 respiration buffer (110 mM sucrose, 0.5 mM ethylene glycol-bis(β-aminoethyl ether)-N,N,N′,N′-tetraacetic acid (EGTA), 3.0 mM MgCl2, 80 mM KCl, 60 mM K-lactobionate, 10 mM KH2PO4, 20 mM taurine, 20 mM Hepes, 1.0 g/L BSA, pH 7.1). Respiration rates were measured at 37 °C using a high-resolution oxygraph (Oxygraph-2k, Oroboros Instruments, Innsbruck, Austria). Respiration rates were calculated as the time derivative of oxygen concentration measured in the closed respirometer. The amplified signal was recorded in a computer with an online display of the calibrated oxygen concentration and oxygen flux (DatLab software for data acquisition and analysis; Oroboros Instruments). The mitochondrial complex activity was assessed by a standard titration protocol: first cells were permeabilized with digitonin (10 µg/1 million cells) for 5 min. Afterward, for complex I-dependent maximal respiration stimulation, substrates added were glutamate (10 mM) and malate (5 mM), which provide nicotinamide adenine dinucleotide (NADH) to the respiratory chain (complex I activation), followed by addition of ADP (2.5 mM) (state 3, maximal respiration). After a stable signal was reached and marked, rotenone (0.5 µM) was added to inhibit complex I, and then complex II-dependent respiration was stimulated by adding succinate (10 mM), which provides flavin adenine dinucleotide (FADH) to the respiratory chain (complex II activation, state 3). Afterward, complex III was inhibited by antimycin A (2.5 µM), and complex IV-dependent respiration was measured by adding ascorbate (2 mM) and N,N,N′,N′-tetramethyl-p-phenylendiamine (TMPD, 0.5 mM). We confirmed the integrity of the outer mitochondrial membrane by showing the absence of a stimulatory effect of exogenous cytochrome c (10 µM) on respiration. Respiration was expressed as oxygen consumption per 5 × 10^5 cells.

Data set [2] deals with mice. The note with it: cited from earlier work.
In data set [3] the test system is complex I of the mitochondrial electron transport chain. The data set can be described thus: High-resolution respirometry, glutamate/malate (complex I). Format: cell-based, human. The note with it: AS 100 µM, OZ78 500 µM, MT04 500 µM, 24 h, permeabilized HepG2, vs DMSO. Here is the method:
as §1

The subject of data set [4] is HepG2 cells. The data set can be described thus: Cellular ATP content (CellTiter-Glo). Format: cell-based, human. Conditions: 24 h, HepG2. Here is the method:
(§2) Stock solutions of the drugs tested were prepared in DMSO 100% (v/v).
(§3) In viability assays, HepG2 cells were treated with 0.1% Triton-X or 0.1% DMSO for positive or negative control, respectively.
To assess cellular ATP content, HepG2 cells were seeded in white-wall 96-well plates with a clear bottom (Nunc). One day after seeding, cells were treated with the respective drugs. […] Luminescence was measured using Tecan M200 Infinite Pro.
On the technique in general: ATP-based viability assays read luminescence as a measure of living cells.

Data set [5] relates to HepG2 cells. The data set can be described thus: Adenylate kinase leakage (membrane integrity test). Format: cell-based, human. The note with it: 24 h, HepG2; for increase in AK release as compared to DMSO control / membrane integrity: 500 µM alone (OZ78, MT04: up to 500 µM); for release of AK, increase as compared to DMSO: combined treatment with Fe2+, concentration not given. How it is done:
as §2, §3
The assay was used according to the protocol supplied by the manufacturer.

In data set [6] the test system is human liver microsomes. The data set can be described thus: Metabolism in the presence of human liver microsomes. The class given is in vitro ADME. The note with it: 10 µM, 2 hours; for parent substance metabolized: functional human liver microsomes, 37 °C. Here is the method:
The metabolism of AS, MT04, and OZ78 was tested in the presence of human liver microsomes or heat-inactivated microsomes (70 °C for 20 min, referred to as control microsomes) at 37 °C. AS, MT04 or OZ78 (10 µM each) were added to 1.0 mL of reaction mixture consisting of microsomes ([…]), an NADPH regenerating system, and PBS buffer, pH 7.4. Adding the drugs started the reaction. Aliquots of 100 µL were transferred into Eppendorf tubes after 0, 15, 30, 60, 120 min. The reaction was stopped by adding 300 µL methanol. The samples were then vortexed and centrifuged at 3000 g for 30 min. Supernatants were taken for LC-MS analysis.
LC-MS/MS measurements for AS were performed as described recently. Briefly, sample measurements were done with a high-performance liquid chromatography (HPLC) system (Shimadzu, Kyoto, Japan) connected to an API 365 triple-quadrupole mass spectrometer (PE Biosystems, Foster City, CA, USA) with a turbo ion spray interface. AS was detected in positive ionization mode by selected reaction monitoring (SRM) with a transition of 267.4→163.0. For analyte separation, a reversed phase column was used (2.1 × 10 mm guard cartridge (3 μm) connected to a 2.1 × 20 mm Atlantis T3 3 μm analytical column (Waters, Milford, MA, USA)). A gradient was used (mobile phase A: 5 mM ammonium formiate plus 0.15% (v/v) formic acid in ultra-pure water, mobile phase B: 0.15% (v/v) formic acid in acetonitrile) at a flow rate of 0.3 mL/min.
The analysis of MT04 and OZ78 [42] was conducted using the same system as described for AS. A phenomenex C8 (50mm × 2.00mm, 5µm, Brechbühler AG, Schlieren, Switzerland) was used for chromatographic separation with a gradient (mobile A: 5 mM ammonium formiate in water and mobile B: acetonitrile) at a flow rate of 0.3 mL/min. MS was conducted in negative ionization mode. For OZ78 and MT04 a mass of 321.4 and 337.4, respectively, was detected.
In general terms: Liver microsomes are vesicles of endoplasmic reticulum, rich in cytochrome P450 enzymes.

The test system of data set [7] is F. hepatica. The note with it: sheep naturally infected with F. hepatica; cited from earlier work.
Data set [8] can be described thus: Drug solutions in cell culture medium. Format: physicochemical. Conditions: from DMSO stock. How it is done:
Stock solutions of the drugs tested were prepared in DMSO 100% (v/v). […] LC-MS measurements confirmed the stability of the compounds (data not shown). Treatments with AS, MT04, or OZ78 (100 or 500 µM) were performed either alone or in combination with 8% (v/v) hemin or FeCl2 solution for 24 h. The final iron concentration used was 122 µM (stock 1.5 mM) based on previous in vitro studies with F. hepatica.

The subject of data set [9] is F. hepatica. The arrangement: method as in PMID 21316331. The note with it: 50 µg/mL; cited from earlier work.
Details of data set [10]: method as in PMID 15318224. Conditions: cited from earlier work.

`C[C@H]1[C@H](OC(=O)CCC(=O)O)O[C@@H]2O[C@@]3(C)CC[C@H]4[C@H](C)CC[C@@H]1[C@@]24OO3` [AS, artesunate, reference compound]: in [1], the “decrease of maximal ADP-stimulated respiration rate, TMPD/ascorbate + antimycin A (complex IV)” value is recorded as 47%. The LD50 is on record as 475 mg/kg in data set [2] (single intramuscular administration) and 520 mg/kg in [2] (single intravenous administration). The “inhibition of maximal ADP-stimulated respiration rate, glutamate + malate (complex I)” value (“inhibition” for short) in data set [3] is on record as 75%. Besides, the “decrease in cellular ATP content as compared to DMSO” value (“decrease in cellular ATP content” for short) was 93% in data set [4] (100 µM + Fe2+ (iron)); 95% in data set [4] (100 µM + hemin); 55% in data set [4] (100 µM alone); “complete depletion in cellular ATP” in data set [4] (500 µM + Fe2+ (iron)); “complete depletion in cellular ATP” in [4] (500 µM + hemin); “complete depletion in cellular ATP” in [4] (500 µM alone). Further, the “membrane leakage (AK release) as compared to DMSO control” value in data set [5] (100 µM + Fe2+) was 320%. Also, the “increase in AK release as compared to DMSO control” value in data set [5] (100 µM alone) was determined as 190%. The “increase in AK release as compared to DMSO control / membrane integrity” value (“increase … to DMSO control / membrane integrity” for short) in [5] was 270%. The parent substance metabolized in [6] amounted to 94%. The “degradation of parent substance” value in [6] (heat-inactivated microsomes) is “no degradation was detected”.

Take `O=C(O)CC1CCC2(CC1)OOC1(OO2)C2CC3CC(C2)CC1C3` (stereo not drawn) [MT04]: the egg count reduction in data set [7] is on record as 98.5%. In [7], the worm burden reduction is recorded as 92%. Also, the “decrease of maximal ADP-stimulated respiration rate, TMPD/ascorbate + antimycin A (complex IV)” value in [1] amounted to 22%. The “behaviour of drug solutions in medium” value in data set [8] was “tend to precipitate”. Further, the “activity against the liver fluke F. hepatica” value in data set [9] is “have activity”. In addition, in [3], the “inhibition” value worked out at 53%. Also, the “decrease in cellular ATP content” value in data set [4] (100 µM + Fe2+ (iron)) is recorded as 20%; in [4] (100 µM + hemin), 40%; in data set [4] (100 µM alone), “not toxic”; in data set [4] (500 µM + Fe2+ (iron)) it was 65%; in [4] (500 µM + hemin) it was 65%; in data set [4] (500 µM alone), 20%. For the same compound, in [5], the “increase … to DMSO control / membrane integrity” value is recorded as “did not impair membrane integrity”. The “release of AK, increase as compared to DMSO” value in data set [5] is reported as 200%. In addition, in data set [6], the parent substance metabolized entry is “did not show a decrease”.

As to `O=C(O)C[C@H]1CC[C@]2(CC1)OOC1(O2)C2CC3CC(C2)CC1C3` (stereo partly drawn) [OZ78], the effect in sheep result in [7] was “no effect”. Also, the “decrease of maximal ADP-stimulated respiration rate, TMPD/ascorbate + antimycin A (complex IV)” value in [1] was “only numerically, but without reaching statistical significance”. In data set [8], the “behaviour of drug solutions in medium” value is on record as “tend to precipitate”. Further, in data set [9], the “activity against the liver fluke F. hepatica” value is reported as “have activity”. Besides, the “inhibition” value in [3] was “did not significantly impair mitochondrial function”. Further, the mutagenic potential entry in data set [10] was “no mutagenic potential”. The “decrease in cellular ATP content” value in [4] (100 µM + Fe2+ (iron)) is “not toxic”; in data set [4] (100 µM + hemin), 12%; in [4] (100 µM alone) it was “not toxic”; in data set [4] (500 µM + Fe2+ (iron)), “not enhanced by the addition of iron or hemin”; in data set [4] (500 µM + hemin), “not enhanced by the addition of iron or hemin”; in data set [4] (500 µM alone), 14%. Further, the “increase … to DMSO control / membrane integrity” value in data set [5] is listed as “did not impair membrane integrity”. Besides, in [5], the “release of AK, increase as compared to DMSO” value is given as “did not”. Also, in data set [6], the parent substance metabolized entry is “did not show a decrease”.
